Data published in publication PMC9350911, “Protein–Calixarene Complexation: From Recognition to Assembly” (Accounts of Chemical Research, 2022).
pKd: −log10 of the molar value.

Legend:
Format in all cases: binding
[1] = target: Penicillium antifungal protein (PAF) (Penicillium chrysogenum, UniProt Q01701); assay: ITC; X-ray cocrystal structure; NMR
cytochrome c (cyt c) [2] = target: T1, cytochrome c (cyt c) (Saccharomyces cerevisiae, UniProt P00044); assay: ITC; X-ray cocrystal structure; NMR; conditions: read-out: apparent dissociation constant; cited from earlier work
T1 construct: gene CYC1

cytochrome c (cyt c) [3] = target: T1, cytochrome c (cyt c); assay: ITC; X-ray cocrystal structure; NMR; SECMALS
cytochrome c (cyt c) [4] = target: T1, cytochrome c (cyt c); assay: ITC; X-ray cocrystal structure; conditions: read-out: apparent dissociation constant; cited from earlier work

T1 sequence (P00044 2-109): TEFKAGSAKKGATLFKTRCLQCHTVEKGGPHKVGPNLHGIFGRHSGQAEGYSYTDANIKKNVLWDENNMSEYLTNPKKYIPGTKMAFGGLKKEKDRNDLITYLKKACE
Sequence of Penicillium antifungal protein (PAF) (Q01701 38-92 limits assumed): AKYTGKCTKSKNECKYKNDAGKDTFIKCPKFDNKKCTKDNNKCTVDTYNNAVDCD

O=S(=O)(O)c1cc2c(O)c(c1)Cc1cc(S(=O)(=O)O)cc(c1O)Cc1cc(S(=O)(=O)O)cc(c1O)Cc1cc(S(=O)(=O)O)cc(c1O)C2 [sulfonato-calix[4]arene]
binding affinity [1]: Micromolar binding affinities were determined by ITC
pKd (cytochrome c (cyt c) [2]): 4.52

O=S(=O)(O)c1cc2c(O)c(c1)Cc1cc(S(=O)(=O)O)cc(c1O)Cc1cc(S(=O)(=O)O)cc(c1O)Cc1cc(S(=O)(=O)O)cc(c1O)Cc1cc(S(=O)(=O)O)cc(c1O)Cc1cc(S(=O)(=O)O)cc(c1O)C2 [sulfonato-calix[6]arene]
binding affinity [1]: Micromolar binding affinities were determined by ITC

O=P(O)(O)c1cc2c(O)c(c1)Cc1cc(P(=O)(O)O)cc(c1O)Cc1cc(P(=O)(O)O)cc(c1O)Cc1cc(P(=O)(O)O)cc(c1O)Cc1cc(P(=O)(O)O)cc(c1O)Cc1cc(P(=O)(O)O)cc(c1O)C2 [phosphonato-calix[6]arene]
binding affinity (cytochrome c (cyt c) [3]): the ITC data indicated a binding affinity in the low micromolar range

O=S(=O)(O)c1cc2c(O)c(c1)Cc1cc(S(=O)(=O)O)cc(c1O)Cc1cc(S(=O)(=O)O)cc(c1O)Cc1cc(Br)cc(c1O)C2 [bromo-sulfonato-calix[4]arene]
pKd (cytochrome c (cyt c) [4]): 4.70
